From patent US11051515B2, “3-acyl-benzamides and their use as herbicides” (Bayer Aktiengesellschaft, priority 2017, dated 2021)

Key:
[1] = test system: MATIN; assay: Pre-emergence action against MATIN; assay type: in vivo, Matricaria inodora; conditions: Dosage 320 g/ha, pre-emergence
Procedure, shortened: (§1)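 Seeds sown in sandy loam in wood-fiber pots and covered with soil. Greenhouse growth; visual damage scored after 3 weeks versus untreated controls (100% = dead, 0% = like control).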

[2] = test system: CYPES; assay: Post-emergence action against CYPES; assay type: in vivo, Cyperus esculentus; conditions: post-emergence, dosage 80 g/ha, visual assessment about 3 weeks after treatment vs untreated controls
Procedure, shortened: (§2)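 Post-emergence foliar spray on greenhouse plants at the one-leaf stage, using wettable-powder or emulsion-concentrate formulations in water (600 to […], plus 0.2% wetting agent). Damage scored by eye roughly 3 weeks later against untreated plants: 0% = like control, 100% = dead.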

[3] = test system: VIOTR; assay: Pre-emergence action against VIOTR; assay type: in vivo, Viola tricolor; conditions: Dosage 320 g/ha, pre-emergence
Procedure, shortened: as §1

[4] = test system: VIOTR; assay: Post-emergence action against VIOTR; assay type: in vivo, Viola tricolor; conditions: post-emergence, dosage 80 g/ha
Procedure, shortened: as §2

[5] = test system: ALOMY; assay: Pre-emergence action against ALOMY; assay type: in vivo, Alopecurus myosuroides; conditions: dosage 320 g/ha; pre-emergence; scored visually after 3 weeks vs untreated controls; 100% = plants have died, 0% = like control plants
Procedure, shortened: as §1

[6] = test system: ECHCG; assay: Pre-emergence action against ECHCG; assay type: in vivo, Echinochloa crus-galli; conditions: pre-emergence, dosage 320 g/ha, scored visually after 3 weeks vs untreated controls
Procedure, shortened: as §1

[7] = test system: SETVI; assay: Pre-emergence action against SETVI; assay type: in vivo, Setaria viridis; conditions: pre-emergence, dosage 320 g/ha, scored visually after 3 weeks vs untreated controls
Procedure, shortened: as §1

[8] = test system: AMARE; assay: Pre-emergence action against AMARE; assay type: in vivo, Amaranthus retroflexus; conditions: pre-emergence, dosage 320 g/ha, scored visually after 3 weeks vs untreated controls
Procedure, shortened: as §1

[9] = test system: SETVI; assay: Post-emergence action against SETVI; assay type: in vivo, Setaria viridis; conditions: post-emergence, dosage 80 g/ha, visual assessment about 3 weeks after treatment vs untreated controls
Procedure, shortened: as §2

[10] = test system: ABUTH; assay: Post-emergence action against ABUTH; assay type: in vivo, Abutilon theophrasti; conditions: post-emergence, dosage 80 g/ha, visual assessment about 3 weeks after treatment vs untreated controls
Procedure, shortened: as §2

[11] = test system: PHBPU; assay: Pre-emergence action against PHBPU; assay type: in vivo, Pharbitis purpurea; conditions: Dosage 320 g/ha, pre-emergence
Procedure, shortened: as §1

[12] = test system: LOLRI; assay: Pre-emergence action against LOLRI; assay type: in vivo, Lolium rigidum; conditions: dosage 320 g/ha, scored visually after 3 weeks vs untreated controls
Procedure, shortened: as §1

[13] = test system: ABUTH; assay: Pre-emergence action against ABUTH; assay type: in vivo, Abutilon theophrasti; conditions: pre-emergence, dosage 320 g/ha, scored visually after 3 weeks vs untreated controls
Procedure, shortened: as §1

[14] = test system: PHBPU; assay: Post-emergence action against PHBPU; assay type: in vivo, Pharbitis purpurea; conditions: post-emergence, dosage 80 g/ha
Procedure, shortened: as §2

[15] = test system: MATIN; assay: Post-emergence action against MATIN; assay type: in vivo, Matricaria inodora; conditions: post-emergence, dosage 80 g/ha, visual assessment about 3 weeks after treatment vs untreated controls
Procedure, shortened: as §2

[16] = test system: POLCO; assay: Post-emergence action against POLCO; assay type: in vivo, Polygonum convolvulus; conditions: post-emergence, dosage 80 g/ha
Procedure, shortened: as §2

[17] = test system: VERPE; assay: Pre-emergence action against VERPE; assay type: in vivo, Veronica persica; conditions: Dosage 320 g/ha, pre-emergence
Procedure, shortened: as §1

[18] = test system: STEME; assay: Pre-emergence action against STEME; assay type: in vivo, Stellaria media; conditions: Dosage 320 g/ha, pre-emergence
Procedure, shortened: as §1

[19] = test system: STEME; assay: Post-emergence action against STEME; assay type: in vivo, Stellaria media; conditions: post-emergence, dosage 80 g/ha
Procedure, shortened: as §2

[20] = test system: POLCO; assay: Pre-emergence action against POLCO; assay type: in vivo, Polygonum convolvulus; conditions: Dosage 320 g/ha, pre-emergence
Procedure, shortened: as §1

[21] = test system: AMARE; assay: Post-emergence action against AMARE; assay type: in vivo, Amaranthus retroflexus; conditions: post-emergence, dosage 80 g/ha, visual assessment about 3 weeks after treatment vs untreated controls
Procedure, shortened: as §2

[22] = test system: ALOMY; assay: Post-emergence action against ALOMY; assay type: in vivo, Alopecurus myosuroides; conditions: Dosage 80 g/ha, post-emergence
Procedure, shortened: as §2

[23] = test system: HORMU; assay: Pre-emergence action against HORMU; assay type: in vivo, Hordeum murinum; conditions: Dosage 320 g/ha
Procedure, shortened: as §1

[24] = test system: AVEFA; assay: Pre-emergence action against AVEFA; assay type: in vivo, Avena fatua; conditions: dosage 320 g/ha, scored visually after 3 weeks vs untreated controls
Procedure, shortened: as §1

[25] = test system: CYPES; assay: Pre-emergence action against CYPES; assay type: in vivo, Cyperus esculentus; conditions: pre-emergence, dosage 320 g/ha, scored visually after 3 weeks vs untreated controls
Procedure, shortened: as §1

[26] = test system: ECHCG; assay: Post-emergence action against ECHCG; assay type: in vivo, Echinochloa crus-galli; conditions: post-emergence, dosage 80 g/ha, visual assessment about 3 weeks after treatment vs untreated controls
Procedure, shortened: as §2

[27] = test system: VERPE; assay: Post-emergence action against VERPE; assay type: in vivo, Veronica persica; conditions: dosage 80 g/ha
Procedure, shortened: as §2

[28] = test system: LOLRI; assay: Post-emergence action against LOLRI; assay type: in vivo, Lolium rigidum; conditions: dosage 80 g/ha, visual assessment about 3 weeks after treatment vs untreated controls
Protocol: Seeds of monocotyledonous and dicotyledonous weed and crop plants are laid out in sandy loam soil in wood-fiber pots, covered with soil and cultivated in a greenhouse under good growth conditions. 2 to 3 weeks after sowing, the test plants are treated at the one-leaf stage. The compounds of the invention, formulated in the form of wettable powders (WP) or as emulsion concentrates (EC), are then sprayed onto the green parts of the plants in the form of an aqueous suspension or emulsion at a water application rate equating to […], with addition of 0.2% wetting agent. After the test plants have been left to stand in the greenhouse under optimal growth conditions for about 3 weeks, the action of the preparations is assessed visually in comparison to untreated controls (herbicidal action in percent (%): 100% activity=the plants have died, 0% activity=like control plants). […] At the same time, inventive compounds leave Gramineae crops such as barley, wheat, rye, millet/Sorghum, corn or rice virtually undamaged when applied post-emergence, even at high active ingredient dosages. In addition, some substances are also harmless to dicotyledonous crops such as soya, cotton, oilseed rape, sugar beet or potatoes. Some of the compounds according to the invention have high selectivity and are therefore suitable for controlling unwanted vegetation in agricultural crops by the post-emergence method. The data of Tables B18 to B34 below illustrate, in an exemplary manner, the […] herbicidal action of the compounds according to the invention, the herbicidal activity being stated in percent.

[29] = test system: AVEFA; assay: Post-emergence action against AVEFA; assay type: in vivo, Avena fatua; conditions: post-emergence, dosage 80 g/ha, visual assessment about 3 weeks after treatment vs untreated controls
Procedure, shortened: as §2

Row | Compound | Pre-emergence action against MATIN [1] [%] | Pre-emergence action against VIOTR [3] [%] | Post-emergence action against VIOTR [4] | Pre-emergence action against ALOMY (herbicidal activity in percent) [5] [%] | Pre-emergence action against ECHCG (herbicidal activity) [6] [%] | SETVI (Table B8, pre-emergence herbicidal activity) [7] [%] | Pre-emergence action against AMARE (herbicidal activity) [8] [%] | Post-emergence action against SETVI (herbicidal action in percent) [9] [%] | Post-emergence action against ABUTH (herbicidal action in percent) [10] [%] | Pre-emergence action against PHBPU [11] [%] | Pre-emergence action against LOLRI (herbicidal activity) [12] [%] | Pre-emergence action against ABUTH (herbicidal activity) [13] [%] | Post-emergence action against PHBPU [14] | Pre-emergence action against VERPE [17] [%] | Pre-emergence action against STEME [18] [%] | Post-emergence action against STEME [19] | Pre-emergence action against POLCO [20] [%] | Post-emergence action against AMARE (herbicidal action in percent) [21] [%] | Post-emergence action against ALOMY [22] [%] | Pre-emergence action against AVEFA (herbicidal activity) [24] [%] | also measured
1 | CC1CC1C(=O)c1c(C(F)(F)F)ccc(C(=O)Nc2nnnn2C)c1Cl (stereo not shown) [1-148] | 100 | 100 | 90 | 100 | 100 | 100 | 100 | 100 | 100 | 100 | 100 | 100 | 100 | 100 | 100 | 100 | 90 | 100 | 80 | 90 | Post-emergence action against CYPES (herbicidal action in percent) [2]: 90%; Post-emergence action against MATIN (herbicidal action in percent) [15]: 100%; Post-emergence action against POLCO [16]: 80; Pre-emergence action against HORMU [23]: 80%; Pre-emergence action against CYPES (herbicidal activity) [25]: 90%; Post-emergence action against ECHCG (herbicidal action in percent) [26]: 100%; Post-emergence action against VERPE [27]: 100; Post-emergence action against LOLRI (herbicidal action in percent) [28]: 80%
2 | Cn1nnnc1NC(=O)c1ccc(C(F)(F)F)c(C(=O)CCl)c1Cl [1-145] | 100 | 100 | 100 | 100 | 100 | 100 | 100 | 100 | 100 | 100 | 100 | 100 | 100 | 100 | 100 | 100 | 100 | 100 | 90 | 100 | Post-emergence action against CYPES (herbicidal action in percent) [2]: 100%; Post-emergence action against AVEFA (herbicidal action in percent) [29]: 90%; Pre-emergence action against CYPES (herbicidal activity) [25]: 100%; Post-emergence action against ECHCG (herbicidal action in percent) [26]: 100%; Post-emergence action against VERPE [27]: 100; Post-emergence action against LOLRI (herbicidal action in percent) [28]: 80%
3 | COCC(=O)c1c(C(F)(F)F)ccc(C(=O)Nc2nnnn2C)c1Cl [1-144] | 100 | 100 | 100 | 100 | 100 | 100 | 100 | 100 | 100 | 100 | 100 | 100 | 100 | 100 | 100 | 100 | 80 | 100 | 90 | 100 | Post-emergence action against MATIN (herbicidal action in percent) [15]: 90%; Pre-emergence action against CYPES (herbicidal activity) [25]: 100%; Post-emergence action against ECHCG (herbicidal action in percent) [26]: 90%; Post-emergence action against VERPE [27]: 90; Post-emergence action against LOLRI (herbicidal action in percent) [28]: 80%
